What was measured:
Format in all cases: in vivo
[1] = tested on: soybean plants (Asgrow 1102); test: Soybean seed yield (Examples 11-12)
Method: (§1) The following experiments were performed on soybean plants growing in open-field plots during the summer and fall of 2008 at two production fields in West Central Minnesota. […] Trial design was a randomized complete block with 4 replications. Each plot measured 10' by 30' and consisted of five 22'' rows. Although all five rows of each plot were treated, only the center three rows (25' in length) of each plot were machine harvested. The two fields selected for these studies had historical Iron Deficiency Chlorosis (IDC) issues. The two field sites were planted by farmers with elite Roundup Ready commodity type soybean varieties with IDC tolerance (Asgrow 1102, Monsanto Corp.). […] BIOX-M was applied at a rate of 1.12 kg Mn/ha. […] All V4 treatments were applied in 10 gallons per acre of water with a backpack sprayer with a hand boom designed to “band” apply product directly to the plant row. Three nozzles with ConeJet TXVS-2 tips were oriented on either side and over the top of each row. This maximized the applied product to the plant tissue itself and minimized application of product to the soil surface. […] The V6 treatments (where applicable) were applied in 20 gallons per acre of water to increase the suspension of the BIOX products. Soybean seed was harvested after soybean maturity was reached (3 October at […], and 17 Oct. 2008 at Foxhome) and seed yields for each experimental treatment group were determined. In addition, seed samples from each treatment were dried to 13% moisture content, then analyzed for protein and oil content.

[2] = tested on: soybean plants (Asgrow 1102); test: Soybean seed protein and oil content (Examples 11-12); details: in %
Method: as §1

[3] = tested on: soybean plants (Asgrow 1102); test: ICP-MS micronutrient content of soybean trifoliates (Examples 11-12); design: Micronutrient content from ICP-MS analysis: Mn: unit not given here; details: for Micronutrient content from ICP-MS analysis: Fe: in ppm (unit assumed)
Method: The following experiments were performed on soybean plants growing in open-field plots during the summer and fall of 2008 at two production fields in West Central Minnesota. […] Trial design was a randomized complete block with 4 replications. Each plot measured 10' by 30' and consisted of five 22'' rows. Although all five rows of each plot were treated, only the center three rows (25' in length) of each plot were machine harvested. The two fields selected for these studies had historical Iron Deficiency Chlorosis (IDC) issues. The two field sites were planted by farmers with elite Roundup Ready commodity type soybean varieties with IDC tolerance (Asgrow 1102, Monsanto Corp.). […] BIOX-M was applied at a rate of 1.12 kg Mn/ha. […] All V4 treatments were applied in 10 gallons per acre of water with a backpack sprayer with a hand boom designed to “band” apply product directly to the plant row. Three nozzles with ConeJet TXVS-2 tips were oriented on either side and over the top of each row. This maximized the applied product to the plant tissue itself and minimized application of product to the soil surface. […] The V6 treatments (where applicable) were applied in 20 gallons per acre of water to increase the suspension of the BIOX products. […] The harvested plants were dried, ground, and subjected to Inductively Coupled Plasma-Mass Spectrometry (ICP-MS) analysis to determine plant micronutrient content.

[4] = tested on: soybean plants (Asgrow 1102); test: Visual greenness ratings (1-5 scale) of soybean plants, open-field (Examples 11-12)
Method: The following experiments were performed on soybean plants growing in open-field plots during the summer and fall of 2008 at two production fields in West Central Minnesota. […] Trial design was a randomized complete block with 4 replications. Each plot measured 10' by 30' and consisted of five 22'' rows. Although all five rows of each plot were treated, only the center three rows (25' in length) of each plot were machine harvested. The two fields selected for these studies had historical Iron Deficiency Chlorosis (IDC) issues. The two field sites were planted by farmers with elite Roundup Ready commodity type soybean varieties with IDC tolerance (Asgrow 1102, Monsanto Corp.). […] BIOX-M was applied at a rate of 1.12 kg Mn/ha. […] All V4 treatments were applied in 10 gallons per acre of water with a backpack sprayer with a hand boom designed to “band” apply product directly to the plant row. Three nozzles with ConeJet TXVS-2 tips were oriented on either side and over the top of each row. This maximized the applied product to the plant tissue itself and minimized application of product to the soil surface. […] The V6 treatments (where applicable) were applied in 20 gallons per acre of water to increase the suspension of the BIOX products.

Tygress tomato plants [5] = test: Yields of tomato fruits, greenhouse (Examples 4-6)
Method: (§2) The following experiments were performed in a green house during the fall of 2008 and spring of 2009 at GCREC, Balm, University of Florida. Crop set-up, procedures and variables were as follows.
(§3) Transplants of Tygress' tomato plants were planted in 2-gallon pots filled with commercial planting medium with nutrient concentration of Fe, Zn, Mn, Cu being negligible and insufficient for crop growth. Irrigation and non-micronutrient fertilizer were provided daily through microsprinklers at recommended rates for tomato production in Florida. No pesticides were used. Treatments were as described in Tables 4, 5 and 6 below.
(§4) Treatments were applied at 5 WAT (weeks after transplanting) using a water volume of 200 mL/plant. A non-ionic surfactant was added. Foliar tissue analysis was performed at 3 and 7 WAT on the non-applied newest leaves. The concentrations of N, P, K, Mg, Ca, B, Zn, Mn, Fe, and Cu in the foliar tissue were determined from foliar analysis by a commercial laboratory at 2 weeks before treatment and again at 2 weeks after treatment.
(§5) Deionized water was used for foliar applications, and other nutrients were applied as appropriate under non-limiting conditions. Marketable fruit were collected three times during the growing season, starting at 10 WAT (5 weeks after the initial treatment). Tomato fruit was graded as extra-large, large and medium. Non-marketable fruit were harvested and number and weight recorded but not sized.
(§6) Experimental design was a randomized complete block design with 6 replications. Data were analyzed using a general linear model, and means were separated using an LSD test at the 5% significance level.

Tygress tomato plants [6] = test: Foliar nutrient concentration 2 weeks after treatment, greenhouse tomato (Examples 4-6); details: Mn 1.0 lb/acre
Method: as §2, §3, §4, §5, §6

O=S(=O)([O-])[O-].[Mn+2] [BIOX-INM, manganese sulfate, reference compound]
Yield ([1]; 3.27 kg/ha, V4, Foxhome): 45.05 Bu/A | Yield ([1]; 3.27 kg/ha, V4, Renville): 27.13 Bu/A | Oil content (13% moisture) ([2]; 3.27 kg/ha, V4, Foxhome): 18.32 | Protein content (13% moisture) ([2]; 3.27 kg/ha, V4, Foxhome): 32.63 | Oil content (13% moisture) ([2]; 3.27 kg/ha, V4, Renville): 19.80 | Protein content (13% moisture) ([2]; 3.27 kg/ha, V4, Renville): 32.36 | Micronutrient content from ICP-MS analysis: Mn ([3]; 3.27 kg/ha, V4, Foxhome): 86.58 | Micronutrient content from ICP-MS analysis: Fe ([3]; 3.27 kg/ha, V4, Foxhome): 87.35 | Micronutrient content from ICP-MS analysis: Mn ([3]; 3.27 kg/ha, V4, Renville): 83.90 | Micronutrient content from ICP-MS analysis: Fe ([3]; 3.27 kg/ha, V4, Renville): 101.17 | Mean visual greenness scores (1-5) ([4]; 3.27 kg/ha, V4, Jul. 15, 2008 Rating, Foxhome): 3.0 | Mean visual greenness scores (1-5) ([4]; 3.27 kg/ha, V4, Jul. 15, 2008 Rating, Renville): 2.4 | Mean visual greenness scores (1-5) ([4]; 3.27 kg/ha, V4, Jul. 29, 2008 Rating, Foxhome): 1.5 A, B, C | Mean visual greenness scores (1-5) ([4]; 3.27 kg/ha, V4, Jul. 29, 2008 Rating, Renville): 1.0 | Marketable tomato yield compared with non-treated control (in words) (Tygress tomato plants [5]; BIOX-M at 1.23 lb/acre or more, BIOX-EDM at 2.0 lb/acre, Mn-sulfate at 1.0 lb/acre): significantly higher than the non-treated control | Marketable yield (Tygress tomato plants [5]; Mn 1.0 lb/acre, tomato fruits): 4.0 a lb/plant | B concentration in tomato leaves (Tygress tomato plants [6]; 2 weeks after Mn treatment): 25 ppm | Ca concentration in tomato leaves (Tygress tomato plants [6]; 2 weeks after Mn treatment): 0.6% | Cu concentration in tomato leaves (Tygress tomato plants [6]; 2 weeks after Mn treatment): 5 ppm | Fe concentration in tomato leaves (Tygress tomato plants [6]; 2 weeks after Mn treatment): 117 ppm | K concentration in tomato leaves (Tygress tomato plants [6]; 2 weeks after Mn treatment): 3.2% | Mg concentration in tomato leaves (Tygress tomato plants [6]; 2 weeks after Mn treatment): 0.3% | N concentration in tomato leaves (Tygress tomato plants [6]; 2 weeks after Mn treatment): 3.4% | P concentration in tomato leaves (Tygress tomato plants [6]; 2 weeks after Mn treatment): 0.6% | Zn concentration in tomato leaves (Tygress tomato plants [6]; 2 weeks after Mn treatment): 34 ppm | Foliar Mn concentration (Tygress tomato plants [6]; tomato leaves 2 weeks after Mn treatment): 80.9 a ppm

EDDHA chelated iron [BIOX-EDDI, reference compound]
Yield ([1]; 2.23 kg/ha, V4, V6, Foxhome): 45.28 Bu/A | Yield ([1]; 2.23 kg/ha, V4, V6, Renville): 24.15 Bu/A | Yield ([1]; 2.23 kg/ha, V4, Foxhome): 38.98 Bu/A | Yield ([1]; 2.23 kg/ha, V4, Renville): 27.19 Bu/A | Oil content (13% moisture) ([2]; 2.23 kg/ha, V4, V6, Foxhome): 18.56 | Protein content (13% moisture) ([2]; 2.23 kg/ha, V4, V6, Foxhome): 32.58 | Oil content (13% moisture) ([2]; 2.23 kg/ha, V4, V6, Renville): 19.97 | Protein content (13% moisture) ([2]; 2.23 kg/ha, V4, V6, Renville): 31.97 | Oil content (13% moisture) ([2]; 2.23 kg/ha, V4, Foxhome): 18.41 | Protein content (13% moisture) ([2]; 2.23 kg/ha, V4, Foxhome): 32.56 | Oil content (13% moisture) ([2]; 2.23 kg/ha, V4, Renville): 20.22 | Protein content (13% moisture) ([2]; 2.23 kg/ha, V4, Renville): 32.14 | Micronutrient content from ICP-MS analysis: Mn ([3]; 2.23 kg/ha, V4, V6, Foxhome): 66.03 | Micronutrient content from ICP-MS analysis: Fe ([3]; 2.23 kg/ha, V4, V6, Foxhome): 86.15 | Micronutrient content from ICP-MS analysis: Mn ([3]; 2.23 kg/ha, V4, V6, Renville): 91.09 | Micronutrient content from ICP-MS analysis: Fe ([3]; 2.23 kg/ha, V4, V6, Renville): 99.56 | Micronutrient content from ICP-MS analysis: Mn ([3]; 2.23 kg/ha, V4, Foxhome): 91.22 | Micronutrient content from ICP-MS analysis: Fe ([3]; 2.23 kg/ha, V4, Foxhome): 82.37 | Micronutrient content from ICP-MS analysis: Mn ([3]; 2.23 kg/ha, V4, Renville): 86.45 | Micronutrient content from ICP-MS analysis: Fe ([3]; 2.23 kg/ha, V4, Renville): 96.89 | Mean visual greenness scores (1-5) ([4]; 2.23 kg/ha, V4, V6, Jul. 15, 2008 Rating, Foxhome): 2.1 | Mean visual greenness scores (1-5) ([4]; 2.23 kg/ha, V4, V6, Jul. 15, 2008 Rating, Renville): 2.9 | Mean visual greenness scores (1-5) ([4]; 2.23 kg/ha, V4, V6, Jul. 29, 2008 Rating, Foxhome): 1.0 C | Mean visual greenness scores (1-5) ([4]; 2.23 kg/ha, V4, V6, Jul. 29, 2008 Rating, Renville): 1.4 | Mean visual greenness scores (1-5) ([4]; 2.23 kg/ha, V4, Jul. 15, 2008 Rating, Foxhome): 2.8 | Mean visual greenness scores (1-5) ([4]; 2.23 kg/ha, V4, Jul. 15, 2008 Rating, Renville): 2.6 | Mean visual greenness scores (1-5) ([4]; 2.23 kg/ha, V4, Jul. 29, 2008 Rating, Foxhome): 2.0 A | Mean visual greenness scores (1-5) ([4]; 2.23 kg/ha, V4, Jul. 29, 2008 Rating, Renville): 1.3 | Greenness of soybean plants compared to control, statement ([4]; BIOX-EDDI applied at V4 only, Foxhome site, 29 July rating): not when applied at V4 only
